Residue numbers refer to the chain shown, from its start. Where two headings read alike, the source gives them in different places.
What was measured:
[1] = test system: HLA-DR and HLA-DP molecules; assay: MHC class II binding assays, panel of twelve HLA class II molecules (number of alleles bound); conditions: number of the twelve class II MHC alleles bound; title: Threshold 600 nM/5 alleles
[2] = test system: lymphocytes obtained from HSV-1 infected H-2^d mice; assay: HSV-primed T-cell responses to gD peptides in HSV-1 infected mice; format: cell-based; conditions: HSV-1 infected H-2^d mice
Protocol: Twelve days after the second immunization, spleen and inguinal lymph nodes (LN) were removed and placed into ice-cold serum free HL-1 medium supplemented with 15 mM HEPES, 5×10^−5 M β-mercaptoethanol, 2 mM glutamine, 50 U of penicillin and 50 μg of streptomycin (GIBCO-BRL, Grand Island, N.Y.) (complete medium, CM). The cells were cultured in 96-well plates at 5×10^5 cells/well in CM, with recall or control peptide at 30, 10, 3, 1, or 0.3 μg/ml concentration, as previously described in (BenMohamed et al., 2000 and 2002). The cell suspensions were incubated for 72 h at 37° C. in 5% CO2. One μCi (micro-curie) of (^3H)-thymidine (Dupont MEN, Boston, Mass.) was added to each well during the last 16 h of culture. The incorporated radioactivity was determined by harvesting cells onto glass fiber filters and counted on a Matrix 96 direct ionization-counter (Packard Instruments, Meriden, Conn.). Results were expressed as the mean cpm of cell-associated (^3H)-thymidine recovered from wells containing Ag minus the mean cpm of cell-associated (^3H)-thymidine recovered from wells without Ag (A cpm) (average of triplicate). The Stimulation Index (SI) was calculated as the mean cpm of cell-associated (^3H)-thymidine recovered from wells containing Ag divided by the mean cpm of cell-associated (^3H)-thymidine recovered from wells without Ag (average of triplicate). For all experiments the irrelevant control peptide gB141-165 and the T-cell mitogen Concanavalin A (ConA) (Sigma, St. Louis, Mo.) were used as negative and positive controls, respectively. Proliferation results were confirmed by repeating each experiment twice. A T-cell proliferative response was considered positive when A cpm>1000 and SI>2.
To define the fine specificity of broadly reactive T-cells associated with viral immunity and to explore immunodominance in the context of HSV infection, proliferation of lymphocytes obtained from twenty HSV-1 infected H-2^d mice were evaluated using the twelve gD peptides as Ag (FIG. 6). […] Despite a difference between individual mice, a unique array of T-cell responses was identified for each of the twenty infected mice analyzed.

[3] = target: T1, DP402 DP (α1*0101, α1*0402) (Homo sapiens, UniProt P04440+P20036, A65V/A84D/A85E/L207M); assay: biochemical; format: binding
T1 sequence (P20036 29-260): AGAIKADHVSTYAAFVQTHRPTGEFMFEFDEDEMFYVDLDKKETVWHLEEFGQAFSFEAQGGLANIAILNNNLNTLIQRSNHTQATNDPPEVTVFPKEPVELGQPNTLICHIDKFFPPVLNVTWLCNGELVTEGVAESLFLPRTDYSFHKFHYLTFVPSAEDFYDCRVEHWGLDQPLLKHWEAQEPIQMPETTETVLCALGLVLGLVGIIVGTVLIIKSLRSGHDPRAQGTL
T1 sequence (P04440 30-258 A65V/A84D/A85E): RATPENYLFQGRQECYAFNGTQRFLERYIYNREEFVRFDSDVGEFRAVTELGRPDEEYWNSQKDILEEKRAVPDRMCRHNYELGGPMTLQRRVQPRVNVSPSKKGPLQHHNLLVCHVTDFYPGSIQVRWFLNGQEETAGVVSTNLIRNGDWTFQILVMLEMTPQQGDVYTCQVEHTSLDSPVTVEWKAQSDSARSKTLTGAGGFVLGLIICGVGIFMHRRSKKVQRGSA

[4] = target: T2, DR1=HLA-DR(α1*0101,α1*0101) (Homo sapiens, UniProt P01903+P01911, A100R/D57E/F55L/F60I/F76Y/I96L/L162R/M171V/P40L/Q125E/R42F/V115G/Y59C); assay: biochemical; format: binding; conditions: […]
T2 construct: endogenous in cells; host or cells: EBV homozygous human B cell line

[5] = target: T3, DR13=HLA-DR(α1*0101,α1*1301) (Homo sapiens, UniProt P01903+P01911, A100E/A169T/K41T/L162R/M171V/P40S/Q125H/Q178H/Q39Y/Q99D/R42S/S66N/T262R/W38E/Y61H); assay: HLA-DR specific binding assay, DR13
T3 construct: endogenous in cells; host or cells: 0206AD (EBV homozygous B cell line)

[6] = target: T4, DRB5=HLA-DR(α1*0101,α5*0101) (Homo sapiens, UniProt P01903+Q30154); assay: biochemical; format: binding; conditions: Table V; […]; read-out: IC50 DRB5
T4 construct: endogenous in cells; host or cells: EBV homozygous human B cell line

[7] = target: T5, DRB4=HLA-DR(α1*0101,α4*0101) (Homo sapiens, UniProt P01903+P13762, G164S); assay: HLA-DR specific binding assay, DRB4 (DR53)
T5 construct: endogenous in cells

[8] = target: T6, DR3=HLA-DR(α1*0101,α1*0301) (Homo sapiens, UniProt P01903+P01911, A100K/A102G/A103R/A169T/F55Y/I96L/K41T/L162R/M171V/P40S/Q125H/Q178H/Q39Y/R42S/S66N/T106N/T262R/W38E/Y61H); assay: HLA-DR specific binding assay, DR3
T6 construct: endogenous in cells; host or cells: STEILIN (EBV homozygous B cell line)

[9] = target: T7, DR7=HLA-DR(α1*0101,α1*0701) (Homo sapiens, UniProt P01903+P01911, A100R/A102G/A103Q/D57E/D86V/E43K/F76Y/K127E/L162R/M171V/P40G/Q125H/Q99D/R33Q/R42Y/R54Q/S133A/S66F/T210M/V115G/Y107V/Y59L/Y89S); assay: HLA-DR specific binding assay, DR7
T7 construct: endogenous in cells; host or cells: EBV homozygous human B cell line

[10] = target: T8, DP401=HLA-DP(α1*0101,α1*0401) (Homo sapiens, UniProt P04440+P20036); assay: biochemical; format: binding
T8 sequence (P20036 32-260 limits assumed): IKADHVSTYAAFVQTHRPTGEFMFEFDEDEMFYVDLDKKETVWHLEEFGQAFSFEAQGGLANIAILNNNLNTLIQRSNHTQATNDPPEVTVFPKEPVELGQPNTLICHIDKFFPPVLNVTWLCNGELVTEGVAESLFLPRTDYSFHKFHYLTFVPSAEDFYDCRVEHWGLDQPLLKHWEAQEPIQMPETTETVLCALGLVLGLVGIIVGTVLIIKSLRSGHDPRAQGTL
T8 sequence (P04440 30-258): T1 sequence (P04440 30-258 A65V/A84D/A85E) with V36A, D55A, E56A

[11] = target: T9, DRB3=HLA-DR(α1*0101,α3*0101) (Homo sapiens, UniProt P01903+P79483); assay: HLA-DR specific binding assay, DRB3 (DR52)
T9 construct: endogenous in cells; host or cells: STEILIN or 0206AD (both typed DRB3*0101)

[12] = target: T10, DR11=HLA-DR(α1*0101,α1*1101) (Homo sapiens, UniProt P01903+P01911, A100R/A169T/A87E/I96F/K41T/L162R/M171V/P40S/Q125H/Q178H/Q39Y/Q99D/R42S/S66Y/T262R/V115G/W38E); assay: biochemical; format: binding
T10 construct: endogenous in cells; host or cells: SWEIG (EBV homozygous B cell line)

[13] = target: T11, DR15=HLA-DR(α1*0101,α1*1501) (Homo sapiens, UniProt P01903+P01911); assay: HLA-DR specific binding assay, DR15
T11 construct: endogenous in cells; host or cells: EBV homozygous human B cell line

[14] = target: T12, DR4=HLA-DR(α1*0101,α1*0401) (Homo sapiens, UniProt P01903+P01911, A100K/A169T/F76Y/I96L/K127E/L162R/M171V/N62H/P40V/Q125Y/R42H/S133A/S149N/S66Y/V115G/V209L/W38E); assay: biochemical; format: binding
T12 construct: endogenous in cells; host or cells: BOLETH (EBV homozygous B cell line)

[15] = Class II MHC allele DR1, read-out: IC50, DR1
[16] = IC50, DR3, Class II MHC allele DR3
[17] = IC50, DRD3, Class II MHC allele DRD3 (so in the source)
[18] = Class II MHC allele DR11, read-out: IC50, DR11
[19] = Table V, […], read-out: IC50 DR11
[20] = Class II MHC allele DR4, read-out: IC50, DR4
[21] = Table V, […], read-out: IC50 DR4

T9 sequence (P79483 30-266, other chains not shown): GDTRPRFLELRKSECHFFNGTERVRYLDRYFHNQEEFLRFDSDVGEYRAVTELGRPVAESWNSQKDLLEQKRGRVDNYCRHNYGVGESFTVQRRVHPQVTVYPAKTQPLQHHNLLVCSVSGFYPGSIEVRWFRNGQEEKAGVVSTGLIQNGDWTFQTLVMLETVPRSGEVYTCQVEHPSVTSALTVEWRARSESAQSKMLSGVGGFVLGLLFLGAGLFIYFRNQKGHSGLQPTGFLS
T4 sequence (Q30154 30-266, other chains not shown): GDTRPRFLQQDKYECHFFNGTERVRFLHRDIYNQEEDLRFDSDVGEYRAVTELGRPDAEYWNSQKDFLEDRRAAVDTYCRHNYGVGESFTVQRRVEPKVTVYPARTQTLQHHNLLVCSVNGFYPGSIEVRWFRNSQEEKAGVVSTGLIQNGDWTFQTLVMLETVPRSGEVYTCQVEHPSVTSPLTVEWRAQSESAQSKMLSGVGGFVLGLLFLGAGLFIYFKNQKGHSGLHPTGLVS

Compound: CC[C@H](C)[C@H](NC(=O)[C@@H](N)[C@@H](C)O)C(=O)N[C@@H](C)C(=O)N[C@@H](Cc1c[nH]c2ccccc12)C(=O)N[C@@H](Cc1ccccc1)C(=O)N[C@@H](CCCNC(=N)N)C(=O)N[C@@H](CCSC)C(=O)NCC(=O)NCC(=O)N[C@@H](CC(N)=O)C(=O)N[C@@H](CS)C(=O)N[C@@H](C)C(=O)N[C@H](C(=O)N1CCC[C@H]1C(=O)N[C@H](C(=O)N[C@H](C(=O)N[C@H](C(=O)N[C@@H](CCSC)C(=O)N[C@@H](CCC(=O)O)C(=O)N[C@@H](Cc1ccc(O)cc1)C(=O)N[C@H](C(=O)N[C@@H](CCC(=O)O)C(=O)N[C@@H](CS)C(=O)N[C@@H](CO)C(=O)N[C@@H](Cc1ccc(O)cc1)C(=O)N[C@@H](CC(N)=O)C(=O)N[C@@H](CCCCN)C(=O)N[C@@H](CO)C(=O)O)[C@@H](C)O)C(C)C)[C@@H](C)O)[C@@H](C)CC)[C@@H](C)CC [HSV 41]
- Range [1]: 8
- immunodominance of epitopes in HSV-primed T-cell responses [2]: subdominant epitopes

Compound: CSCC[C@H](NC(=O)[C@@H](NC(=O)[C@H](Cc1ccc(O)cc1)NC(=O)[C@H](CCCNC(=N)N)NC(=O)[C@@H](N)Cc1ccccc1)C(C)C)C(=O)N[C@@H](CCCNC(=N)N)C(=O)N[C@@H](CC(C)C)C(=O)N[C@@H](CCC(N)=O)C(=O)N[C@@H](CO)C(=O)N[C@@H](CC(N)=O)C(=O)N1CCC[C@H]1C(=O)N[C@@H](CCSC)C(=O)N[C@@H](CCCCN)C(=O)N[C@@H](C)C(=O)N[C@@H](CC(C)C)C(=O)N[C@@H](Cc1ccc(O)cc1)C(=O)N1CCC[C@H]1C(=O)N[C@@H](CC(C)C)C(=O)N[C@H](C(=O)N[C@H](C(=O)N[C@@H](CCCCN)C(=O)N[C@@H](CCC(=O)O)C(=O)N[C@@H](CC(C)C)C(=O)N[C@@H](CCCCN)C(=O)N[C@@H](CC(N)=O)C(=O)N1CCC[C@H]1C(=O)N[C@H](C(=O)N[C@@H](CC(N)=O)C(=O)N1CCC[C@H]1C(=O)N[C@@H](CC(=O)O)C(=O)N[C@@H](C)C(=O)N[C@@H](CO)C(=O)NCC(=O)N[C@@H](CCC(=O)O)C(=O)NCC(=O)O)[C@@H](C)O)[C@@H](C)O)[C@@H](C)O [HSV 8]
- IC50 ([3]; Class II MHC allele DP402): 32 nM
- IC50 ([3]; Table V, […]): 32 nM
- IC50 ([4]; Table V, read-out: IC50 DR1): 2 nM
- IC50 [4, 15]: 2 nM
- IC50 [5]: 314 nM
- IC50 [6]: 2 nM
- IC50 [7]: 232 nM
- IC50 [8, 16]: 4780 nM
- IC50 ([8]; IC50 DR3, Table V, […]): 4780 nM
- Range [1]: 10
- IC50 [9]: 20 nM
- IC50 ([10]; Class II MHC allele DP401): 107 nM
- IC50 ([10]; Table V, […]): 107 nM
- IC50 [11, 17]: 55000 nM
- IC50 ([11]; IC50 DRB3, Table V, […]): 55000 nM
- IC50 [12, 18]: 4 nM
- IC50 [12, 19]: 4 nM
- IC50 [13]: 3 nM
- IC50 [14, 20]: 12 nM
- IC50 [14, 21]: 12 nM

Compound: CC[C@H](C)[C@H](NC(=O)[C@H](CCSC)NC(=O)[C@H](CCC(=O)O)NC(=O)[C@H](CCCNC(=N)N)NC(=O)[C@H](C)NC(=O)[C@H](CCC(=O)O)NC(=O)[C@H](C)NC(=O)[C@H](CC(C)C)NC(=O)[C@@H](N)CCCCN)C(=O)N[C@@H](CCCNC(=N)N)C(=O)N[C@@H](Cc1ccc(O)cc1)C(=O)N[C@@H](CCSC)C(=O)N[C@@H](C)C(=O)N[C@@H](CC(C)C)C(=O)N[C@H](C(=O)N[C@@H](CO)C(=O)N[C@@H](C)C(=O)N[C@@H](CCSC)C(=O)N[C@@H](CCC(=O)O)C(=O)N[C@@H](CCCNC(=N)N)C(=O)N[C@H](C(=O)N[C@@H](CCC(=O)O)C(=O)N[C@@H](Cc1c[nH]cn1)C(=O)N[C@@H](CCCCN)C(=O)N[C@@H](C)C(=O)N[C@@H](CCCCN)C(=O)N[C@@H](CCCCN)C(=O)N[C@@H](CCCCN)C(=O)NCC(=O)N[C@H](C(=O)N[C@@H](CO)C(=O)N[C@@H](C)C(=O)O)[C@@H](C)O)[C@@H](C)O)C(C)C [HSV 1]
- IC50 ([3]; Class II MHC allele DP402): 240 nM
- IC50 ([3]; Table V, […]): 240 nM
- IC50 ([4]; Table V, read-out: IC50 DR1): 6 nM
- IC50 [4, 15]: 6 nM
- IC50 [5]: 284 nM
- IC50 [6]: 6 nM
- IC50 [7]: 43 nM
- IC50 [8, 16]: 995 nM
- IC50 ([8]; IC50 DR3, Table V, […]): 995 nM
- Range [1]: 10
- IC50 [9]: 296 nM
- IC50 ([10]; Class II MHC allele DP401): 1610 nM
- IC50 ([10]; Table V, […]): 1610 nM
- IC50 [11, 17]: > 100000 nM
- IC50 ([11]; IC50 DRB3, Table V, […]): > 100000 nM
- IC50 [12, 18]: 13 nM
- IC50 [12, 19]: 13 nM
- IC50 [13]: 3 nM
- IC50 [14, 20]: 37 nM
- IC50 [14, 21]: 37 nM

Source: US20080299140A1, “Immunogenic Composition and Peptide Sequences for Prevention and Treatment of an Hsv Condition” (priority 2002, published 2008)
